In publication PMC4193543 (ChemMedChem, 2012):

molecular target: BK β1 subunit (Rattus norvegicus, UniProt P97678); assay: inside-out patch clamp, single-channel NPo in excised oocyte patches; format: cell-based
Sequence (P97678 whole entry): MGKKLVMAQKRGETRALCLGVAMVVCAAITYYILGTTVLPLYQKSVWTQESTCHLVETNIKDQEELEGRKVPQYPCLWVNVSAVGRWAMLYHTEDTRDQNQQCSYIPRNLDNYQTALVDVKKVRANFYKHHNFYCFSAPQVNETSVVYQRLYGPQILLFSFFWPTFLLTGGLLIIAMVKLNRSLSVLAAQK
Sequence (Q62976 whole entry partner): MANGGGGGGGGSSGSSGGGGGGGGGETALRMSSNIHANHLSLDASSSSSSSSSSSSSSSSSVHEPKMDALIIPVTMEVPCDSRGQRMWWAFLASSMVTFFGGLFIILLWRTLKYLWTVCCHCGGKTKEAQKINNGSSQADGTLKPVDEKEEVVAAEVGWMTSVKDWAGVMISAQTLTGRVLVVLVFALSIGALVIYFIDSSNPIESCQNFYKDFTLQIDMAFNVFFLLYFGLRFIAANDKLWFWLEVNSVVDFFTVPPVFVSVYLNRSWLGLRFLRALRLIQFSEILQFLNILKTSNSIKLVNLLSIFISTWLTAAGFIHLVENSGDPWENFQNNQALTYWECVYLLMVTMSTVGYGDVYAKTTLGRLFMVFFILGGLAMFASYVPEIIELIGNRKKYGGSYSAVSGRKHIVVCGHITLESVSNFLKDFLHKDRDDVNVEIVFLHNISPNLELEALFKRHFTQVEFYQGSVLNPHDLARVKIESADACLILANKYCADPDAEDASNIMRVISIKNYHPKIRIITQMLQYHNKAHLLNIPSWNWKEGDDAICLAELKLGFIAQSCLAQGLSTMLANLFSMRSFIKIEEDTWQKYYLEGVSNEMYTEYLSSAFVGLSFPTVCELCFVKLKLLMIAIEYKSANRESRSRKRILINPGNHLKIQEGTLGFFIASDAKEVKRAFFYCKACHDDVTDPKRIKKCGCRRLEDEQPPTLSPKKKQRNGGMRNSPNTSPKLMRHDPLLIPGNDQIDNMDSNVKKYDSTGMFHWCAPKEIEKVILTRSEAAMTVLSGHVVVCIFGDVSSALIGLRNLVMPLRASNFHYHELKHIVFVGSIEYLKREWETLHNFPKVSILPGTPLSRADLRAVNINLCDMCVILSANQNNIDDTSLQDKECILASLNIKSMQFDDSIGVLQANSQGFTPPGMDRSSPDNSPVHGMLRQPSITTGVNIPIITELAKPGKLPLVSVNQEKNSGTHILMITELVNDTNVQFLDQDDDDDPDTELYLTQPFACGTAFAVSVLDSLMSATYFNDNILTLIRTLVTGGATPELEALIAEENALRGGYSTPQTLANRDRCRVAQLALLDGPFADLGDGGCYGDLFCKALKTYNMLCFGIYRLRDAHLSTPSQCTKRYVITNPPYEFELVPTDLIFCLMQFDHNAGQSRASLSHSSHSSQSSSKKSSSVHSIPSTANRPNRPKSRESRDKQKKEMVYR

SMILES | EC50
C[C@H](CCC(=O)O)[C@H]1CC[C@H]2[C@@H]3CC[C@@H]4C[C@H](O)CC[C@]4(C)[C@H]3CC[C@]12C [LCA, 5β-cholanic acid-3α-ol] | 44 µM
C[C@H](CCC#N)[C@H]1CC[C@H]2[C@@H]3CC[C@@H]4C[C@H](O)CC[C@]4(C)[C@H]3CC[C@]12C [compound 11, 3α-hydroxy-23-cyano analog, de-acetylated derivative (11)] | 46.4 µM
C[C@H](CCCC(=O)O)[C@H]1CC[C@H]2[C@@H]3CC[C@@H]4C[C@H](O)CC[C@]4(C)[C@H]3CC[C@]12C [compound 15, higher homologe acid (15, carboxyl group at C25)] | 42.8 µM
